The values below come from patent US8242274B2, “Triazolopyridine kinase inhibitors useful for the treatment of degenerative and inflammatory diseases” (Galapagos NV, priority 2008, dated 2012).

Where only a bound is given, the exact number is not on record here.

The target of test [1] is T1, Recombinant human JAK3 catalytic domain (Homo sapiens, UniProt P52333).
T1 construct: Recombinant human JAK3 catalytic domain (amino acids 781-1124; catalog number PV3855); purchased Invitrogen PV3855
Description: JAK3 inhibition assay. It is filed as biochemical. The following applies: semi-quantitative score. Here is the method:
Recombinant human JAK3 catalytic domain (amino acids 781-1124; catalog number PV3855) was purchased from Invitrogen. 0.025 mU of JAK3 was incubated with 2.5 μg polyGT substrate (Sigma catalog number P0275) in kinase reaction buffer (25 mM Tris pH 7.5, 0.5 mM EGTA, 0.5 mM Na3VO4, 5 mM b-glycerolphosphate, 0.01% Triton X-100, 1 μM non-radioactive ATP, 0.25 μCi 33P-gamma-ATP (GE Healthcare, catalog number AH9968) final concentrations) with or without 5 μL containing test compound or vehicle (DMSO, 1% final concentration), in a total volume of 25 μL, in a polypropylene 96-well plate (Greiner, V-bottom). After 105 min at 30° C., reactions were stopped by adding of 25 μL/well of 150 mM phosphoric acid. All of the terminated kinase reaction was transferred to prewashed (75 mM phosphoric acid) 96 well filter plates (Perkin Elmer catalog number 6005177) using a cell harvester (Perkin Elmer). Plates were washed 6 times with 300 μL per well of a 75 mM phosphoric acid solution and the bottom of the plates was sealed. 40 μL/well of Microscint-20 was added, the top of the plates was sealed and readout was performed using the Topcount (Perkin Elmer). Kinase activity was calculated by subtracting counts per minute (cpm) obtained in the presence of a positive control inhibitor (10 μM staurosporine) from cpm obtained in the presence of vehicle. The ability of a test compound to inhibit this activity was determined as: Percentage inhibition=((cpm determined for sample with test compound present−cpm determined for sample with positive control inhibitor) divided by (cpm determined in the presence of vehicle−cpm determined for sample with positive control inhibitor))*100%.
Dose dilution series were prepared for the compounds enabling the testing of dose-response effects in the JAK3 assay and the calculation of the IC50 for each compound. Each compound was routinely tested at concentration of 20 μM followed by a 1/3 serial dilution, 8 points (20 μM-6.67 μM-2.22 μM-740 nM-247 nM-82 nM-27 nM-9 nM) in a final concentration of 1% DMSO.

The test system of test [2] is Collagen Induced Arthritis (CIA). The experiment in a line: rat CIA model. The format is in vivo. The procedure: Completed Freund's adjuvant (CFA) and incomplete Freund's adjuvant (IFA) were purchased from Difco. Bovine collagen type II (CII), lipopolysaccharide (LPS), and Enbrel were obtained from Chondrex (Isle d'Abeau, France); Sigma (P4252, L'Isle d'Abeau, France), Whyett (25 mg injectable syringe, France) Acros Organics (Palo Alto, Calif.), respectively. All other reagents used were of reagent grade and all solvents were of analytical grade.
Dark Agouti rats (male, 7-8 weeks old) were obtained from Harlan Laboratories (Maison-Alfort, France). Rats were kept on a 12 hours light/dark cycle (0700-1900). The temperature was maintained at 22° C., and food and water were provided ad libitum.
One day before the experiment, CII solution (2 mg/mL) was prepared with 0.05 M acetic acid and stored at 4° C. Just before the immunization, equal volumes of adjuvant (IFA) and CII were mixed by a homogenizer in a pre-cooled glass bottle in an ice water bath. Extra adjuvant and prolonged homogenization might be required if an emulsion is not formed. 0.2 mL of the emulsion was injected intradermally at the base of the tail of each rat on day 1, a second booster intradermal injection (CII solution at 2 mg/mL in CFA 0.1 mL saline) was performed on day 9. This immunization method was modified from published methods (Sims et al, 2004; Jou et al., 2005).
The therapeutic effects of the test compounds were tested in the rat CIA model. Rats were randomly divided into equal groups and each group contained 10 rats. All rats were immunized on day 1 and boosted on day 9. Therapeutic dosing lasted from day 16 to day 30. The negative control group was treated with vehicle (MC 0.5%) and the positive control group with Enbrel (10 mg/kg, 3× week, s.c.). A compound of interest was typically tested at 3 doses, e.g. 3, 10, 30 mg/kg, p.o.
Arthritis was scored according to the method of Khachigian 2006, Lin et al 2007 and Nishida et al. 2004). The swelling of each of the four paws was ranked with the arthritic score as follows: 0—no symptoms; 1—mild, but definite redness and swelling of one type of joint such as the ankle or wrist, or apparent redness and swelling limited to individual digits, regardless of the number of affected digits; 2—moderate redness and swelling of two or more types of joints; 3—severe redness and swelling of the entire paw including digits; 4—maximally inflamed limb with involvement of multiple joints (maximum cumulative clinical arthritis score 16 per animal) (Nishida et al., 2004).
The change in body weight (%) after onset of arthritis was calculated as follows: […]
X-ray photos were taken of the hind paws of each individual animal. […]

Another test deals with MAB model. Description: MAB model (collagen antibody-induced arthritis). The following applies: for activity in the MAB model: 30 mg/kg. It is filed as in vivo, mice. Here is the method:
The MAB model allows a rapid assessment of the modulation of an RA-like inflammatory response by therapeutics ([…]. Nature Protocols (2006) 2512-2516: Collagen antibody-induced arthritis). DBA/J mice were injected i.v. with a cocktail of mAbs directed against collagen II. One day later, compound treatment was initiated (vehicle: 10% (v/v) HPβCD). Three days later, mice received an i.p. LPS injection (50 μg/mouse), resulting in a fast onset of inflammation. Compound treatment was continued until 10 days after the mAb injection. Inflammation was read by measuring paw swelling and recording the clinical score of each paw. The cumulative clinical arthritis score of four limbs was presented to show the severity of inflammation. A scoring system is applied to each limb using a scale of 0-4, with 4 being the most severe inflammation. • 0 Symptom free • 1 Mild, but definite redness and swelling of one type of joint such as the ankle or wrist, or apparent redness and swelling limited to individual digits, regardless of the number of affected digits • 2 Moderate redness and swelling of two or more types of joints • 3 Severe redness and swelling of the entire paw including digits • 4 Maximally inflamed limb with involvement of multiple joints

T1 sequence (P52333 781-1124): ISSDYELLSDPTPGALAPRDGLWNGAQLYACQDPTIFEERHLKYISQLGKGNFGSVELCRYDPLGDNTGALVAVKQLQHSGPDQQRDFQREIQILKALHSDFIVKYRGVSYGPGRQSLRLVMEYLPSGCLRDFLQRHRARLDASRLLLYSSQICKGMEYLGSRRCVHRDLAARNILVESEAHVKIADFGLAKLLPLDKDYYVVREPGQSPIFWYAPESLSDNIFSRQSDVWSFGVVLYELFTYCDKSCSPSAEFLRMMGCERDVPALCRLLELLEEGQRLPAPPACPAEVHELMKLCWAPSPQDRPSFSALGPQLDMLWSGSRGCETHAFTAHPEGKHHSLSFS

As a reminder, the IC50 is the midpoint of a concentration-inhibition curve. Take `O=C(Nc1nc2cccc(-c3ccc(NCc4ccccc4)cc3)n2n1)C1CC1` [Compound 72, N-(5-(4-(benzylamino)phenyl)-[1,2,4]triazolo[1,5-a]pyridin-2-yl)cyclopropanecarboxamide]: in test [1], the half-maximal inhibitory concentration (IC50) was more than 501 nM.

As for `O=C(Nc1nc2cccc(-c3ccc(OCc4ccccn4)cc3)n2n1)C1CC1` [Compound 37, N-(5-(4-(pyridin-2-ylmethoxy)phenyl)-[1,2,4]triazolo[1,5-a]pyridin-2-yl)cyclopropanecarboxamide], the “activity in the rat CIA study” value in test [2] (10 mg/kg) was “active”. Besides, the “activity in the MAB model” value in the test with MAB model is reported as “active”.

Consider `O=C(Nc1nc2cccc(-c3ccc(OCc4cccnc4)cc3)n2n1)C1CC1` [Compound 36, N-(5-(4-(pyridin-3-ylmethoxy)phenyl)-[1,2,4]triazolo[1,5-a]pyridin-2-yl)cyclopropanecarboxamide], for which the 50% inhibitory concentration (IC50) in test [1] lay in the range of 101 to 500 nM. In addition, the “activity in the rat CIA study” value in test [2] (30 mg/kg) was “active”. In addition, the “activity in the MAB model” value in the test with MAB model is “active”.

Take `O=C(Nc1nc2cccc(-c3ccc(OCc4ccccc4)cc3)n2n1)C1CC1` [Compound 12, N-(5-(4-(benzyloxy)phenyl)-[1,2,4]triazolo[1,5-a]pyridin-2-yl)cyclopropanecarboxamide]: the concentration for half-maximal inhibition (IC50) in test [1] lay in the range of 1 to 100 nM.

With `N#Cc1ccc(COc2ccc(-c3cccc4nc(NC(=O)C5CC5)nn34)cc2)cn1` [Compound 176, N-(5-(4-((6-cyanopyridin-3-yl)methoxy)phenyl)-[1,2,4]triazolo[1,5-a]pyridin-2-yl)cyclopropanecarboxamide], the IC50 in test [1] lay within 1 to 100 nM. In test [2] (3 mg/kg), the “clinical score, rat CIA study” value is reported as “Statistical significance” and the “paw swelling, rat CIA study” value was “Statistical significance”. The “efficacy in the rat CIA study, all readouts” value in test [2] (rat, p.o., day 16 to day 30) was “efficacious in all readouts”. In the test on MAB model (10 mg/kg p.o.), the “clinical score, MAB model” value is “reduced the clinical score” and the “inflammation, MAB model” value is “significantly reduced inflammation”. For the same compound, in the test with MAB model (30 mg/kg p.o.), the “clinical score, MAB model” value is listed as “reduced the clinical score with statistical significance” and the “inflammation, MAB model” value was “significantly reduced inflammation”.

For `O=C(Nc1nc2cccc(-c3ccc(OCc4ccccc4)nc3)n2n1)C1CC1` [Compound 57, Cyclopropanecarboxylic acid [5-(6-benzyloxy-pyridin-3-yl)-[1,2,4]triazolo[1,5-a]pyridin-2-yl]-amide], the half-maximal inhibitory concentration (IC50) in test [1] was more than 501 nM.
